# Results from ChEMBL document CHEMBL2331260, “Discovery of thieno[3,2-d]pyrimidine-6-carboxamides as potent inhibitors of SIRT1, SIRT2, and SIRT3” (J Med Chem, 2013).
# How the values were obtained:
# [1] = target: T1, NAD-dependent protein deacetylase sirtuin-2 (Homo sapiens, UniProt Q8IXJ6); experiment: Inhibition of His-tagged SIRT2 (1 to 389) (unknown origin)-mediated deacetylation of Ac-RHKKAcW-NH2 substrate incubated for 20 mins prior to substrate addition measured after 30 mins by mass spectrophotometric analysis
# T1 sequence (Q8IXJ6 whole entry): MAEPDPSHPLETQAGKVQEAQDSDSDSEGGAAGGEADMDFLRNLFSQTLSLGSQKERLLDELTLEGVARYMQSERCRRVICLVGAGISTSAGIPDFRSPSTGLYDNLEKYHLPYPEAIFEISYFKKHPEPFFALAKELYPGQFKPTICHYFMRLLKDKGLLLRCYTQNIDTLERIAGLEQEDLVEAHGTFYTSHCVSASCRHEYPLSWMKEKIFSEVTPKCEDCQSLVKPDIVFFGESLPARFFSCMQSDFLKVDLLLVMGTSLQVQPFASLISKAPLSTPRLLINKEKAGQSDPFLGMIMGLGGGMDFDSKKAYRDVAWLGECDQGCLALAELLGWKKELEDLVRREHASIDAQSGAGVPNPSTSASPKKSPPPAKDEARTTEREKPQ
# [2] = target: T2, NAD-dependent protein deacetylase sirtuin-1 (Homo sapiens, UniProt Q96EB6); experiment: Inhibition of His-tagged SIRT1 (1 to 747) (unknown origin)-mediated deacetylation of Ac-RHKKAcW-NH2 substrate preincubated for 20 mins measured after 30 mins by mass spectrophotometric analysis
# T2 sequence (Q96EB6 whole entry): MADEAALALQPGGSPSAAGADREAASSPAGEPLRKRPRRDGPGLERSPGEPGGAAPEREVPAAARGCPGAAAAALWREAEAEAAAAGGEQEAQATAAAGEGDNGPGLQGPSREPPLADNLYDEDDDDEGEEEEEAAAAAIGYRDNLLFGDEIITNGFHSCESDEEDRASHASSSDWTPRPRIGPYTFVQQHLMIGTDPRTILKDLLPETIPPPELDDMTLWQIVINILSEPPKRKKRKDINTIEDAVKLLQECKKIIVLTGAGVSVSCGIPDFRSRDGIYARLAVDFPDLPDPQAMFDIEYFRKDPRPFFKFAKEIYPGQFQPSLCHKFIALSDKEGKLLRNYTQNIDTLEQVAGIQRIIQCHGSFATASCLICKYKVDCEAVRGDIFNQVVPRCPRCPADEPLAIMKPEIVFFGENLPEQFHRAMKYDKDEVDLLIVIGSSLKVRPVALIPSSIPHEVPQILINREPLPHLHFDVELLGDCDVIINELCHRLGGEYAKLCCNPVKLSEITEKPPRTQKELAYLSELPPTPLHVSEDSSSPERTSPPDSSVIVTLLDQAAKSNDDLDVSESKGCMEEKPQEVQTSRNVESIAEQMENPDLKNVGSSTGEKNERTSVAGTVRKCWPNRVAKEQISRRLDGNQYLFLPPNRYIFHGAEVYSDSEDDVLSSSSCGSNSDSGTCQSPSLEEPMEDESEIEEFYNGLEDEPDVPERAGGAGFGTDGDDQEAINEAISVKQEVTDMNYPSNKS
# [3] = Kinetic solubility in PBS at pH 7.4 by chemiluminescent nitrogen detection assay
# [4] = target: T3, NAD-dependent protein deacetylase sirtuin-3, mitochondrial (Homo sapiens, UniProt Q9NTG7); experiment: Inhibition of human His-tagged SIRT3 (102 to 399) expressed in Escherichia coli BL21(DE3) assessed as inhibition of deacetylation of Ac-RHKKAcW-NH2 substrate preincubated for 20 mins measured after 30 mins by mass spectrophotometric analysis
# T3 sequence (Q9NTG7 whole entry): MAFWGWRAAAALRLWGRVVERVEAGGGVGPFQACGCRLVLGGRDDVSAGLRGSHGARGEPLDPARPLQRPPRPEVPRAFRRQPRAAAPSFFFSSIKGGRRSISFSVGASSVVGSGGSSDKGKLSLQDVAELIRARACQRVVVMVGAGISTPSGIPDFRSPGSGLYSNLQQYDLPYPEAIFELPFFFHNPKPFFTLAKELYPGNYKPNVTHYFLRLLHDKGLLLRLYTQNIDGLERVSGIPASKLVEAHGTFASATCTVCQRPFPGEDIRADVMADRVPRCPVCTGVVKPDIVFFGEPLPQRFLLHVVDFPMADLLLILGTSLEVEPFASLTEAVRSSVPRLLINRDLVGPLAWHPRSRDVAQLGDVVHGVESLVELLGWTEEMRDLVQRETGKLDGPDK
# Cytochrome P450 3A4 = Cytochrome P450 3A4 (Homo sapiens, UniProt P08684); experiment: Inhibition of CYP3A4 (unknown origin); assay type: ADME
# Cytochrome P450 3A4, sequence (P08684 whole entry): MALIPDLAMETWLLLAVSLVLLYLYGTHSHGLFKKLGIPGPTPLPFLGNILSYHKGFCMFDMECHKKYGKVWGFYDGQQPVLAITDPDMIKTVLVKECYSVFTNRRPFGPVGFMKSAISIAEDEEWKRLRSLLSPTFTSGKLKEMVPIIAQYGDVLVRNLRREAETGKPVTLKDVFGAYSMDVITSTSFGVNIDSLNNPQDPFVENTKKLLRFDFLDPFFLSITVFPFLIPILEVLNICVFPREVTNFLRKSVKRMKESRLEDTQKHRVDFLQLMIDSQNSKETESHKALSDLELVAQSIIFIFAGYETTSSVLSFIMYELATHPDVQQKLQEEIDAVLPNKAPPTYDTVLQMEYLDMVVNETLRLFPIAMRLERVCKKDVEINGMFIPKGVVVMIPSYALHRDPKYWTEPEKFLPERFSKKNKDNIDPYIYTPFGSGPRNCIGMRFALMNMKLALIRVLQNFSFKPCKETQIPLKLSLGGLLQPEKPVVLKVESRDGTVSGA
# Cytochrome P450 2D6 = Cytochrome P450 2D6 (Homo sapiens, UniProt P10635); experiment: Inhibition of CYP2D6 (unknown origin); assay type: ADME
# Cytochrome P450 2D6, sequence (P10635 whole entry): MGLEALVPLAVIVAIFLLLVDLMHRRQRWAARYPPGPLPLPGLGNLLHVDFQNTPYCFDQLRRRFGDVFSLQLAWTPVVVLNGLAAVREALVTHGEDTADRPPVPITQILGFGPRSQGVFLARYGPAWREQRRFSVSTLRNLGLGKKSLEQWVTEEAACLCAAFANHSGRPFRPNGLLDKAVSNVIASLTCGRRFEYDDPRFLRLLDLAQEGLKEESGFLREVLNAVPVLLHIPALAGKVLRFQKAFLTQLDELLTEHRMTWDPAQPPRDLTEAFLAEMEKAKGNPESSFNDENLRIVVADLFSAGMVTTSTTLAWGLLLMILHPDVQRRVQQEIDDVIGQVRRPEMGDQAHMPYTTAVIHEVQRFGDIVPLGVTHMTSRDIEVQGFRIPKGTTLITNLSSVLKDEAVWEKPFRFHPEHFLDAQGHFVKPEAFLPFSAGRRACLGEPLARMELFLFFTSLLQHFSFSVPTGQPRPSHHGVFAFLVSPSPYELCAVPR
# Cytochrome P450 2C19 = Cytochrome P450 2C19 (Homo sapiens, UniProt P33261); experiment: Inhibition of CYP2C19 (unknown origin); assay type: ADME
# Cytochrome P450 2C19, sequence (P33261 whole entry): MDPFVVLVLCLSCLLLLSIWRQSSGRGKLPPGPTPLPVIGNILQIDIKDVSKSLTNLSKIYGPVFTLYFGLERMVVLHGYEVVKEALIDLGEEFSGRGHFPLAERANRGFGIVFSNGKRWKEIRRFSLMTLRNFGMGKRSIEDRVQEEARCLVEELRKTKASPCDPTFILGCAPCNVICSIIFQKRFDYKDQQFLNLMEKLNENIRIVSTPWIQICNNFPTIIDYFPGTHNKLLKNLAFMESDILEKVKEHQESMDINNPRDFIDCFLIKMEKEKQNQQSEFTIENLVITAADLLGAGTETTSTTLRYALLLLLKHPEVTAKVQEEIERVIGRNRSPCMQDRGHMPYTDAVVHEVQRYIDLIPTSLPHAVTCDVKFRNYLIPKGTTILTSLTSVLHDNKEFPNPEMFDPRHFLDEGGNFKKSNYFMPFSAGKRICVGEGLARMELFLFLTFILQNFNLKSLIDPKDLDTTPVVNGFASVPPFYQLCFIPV
# Cytochrome P450 1A2 = target: T4, Cytochrome P450 1A2 (Homo sapiens, UniProt P05177); experiment: Inhibition of CYP1A2 (unknown origin); assay type: ADME
# T4 sequence (P05177 whole entry): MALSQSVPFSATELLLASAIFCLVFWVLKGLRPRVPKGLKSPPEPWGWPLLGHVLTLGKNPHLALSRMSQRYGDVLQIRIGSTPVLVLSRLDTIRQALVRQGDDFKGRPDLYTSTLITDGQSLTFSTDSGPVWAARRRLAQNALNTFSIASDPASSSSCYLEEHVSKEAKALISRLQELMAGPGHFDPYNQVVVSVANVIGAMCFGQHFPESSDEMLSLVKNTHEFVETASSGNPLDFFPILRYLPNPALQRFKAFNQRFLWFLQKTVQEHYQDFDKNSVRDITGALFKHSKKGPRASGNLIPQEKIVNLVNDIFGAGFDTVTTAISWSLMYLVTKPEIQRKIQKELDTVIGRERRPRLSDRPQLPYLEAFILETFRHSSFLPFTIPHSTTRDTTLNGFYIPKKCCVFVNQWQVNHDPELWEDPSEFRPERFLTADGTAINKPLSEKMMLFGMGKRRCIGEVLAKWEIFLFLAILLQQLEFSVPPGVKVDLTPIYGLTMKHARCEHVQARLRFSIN
# [5] = target: Voltage-gated inwardly rectifying potassium channel KCNH2 (Homo sapiens, UniProt Q12809); experiment: Inhibition of human ERG by dofetilide binding assay
# Voltage-gated inwardly rectifying potassium channel KCNH2, sequence (Q12809 whole entry): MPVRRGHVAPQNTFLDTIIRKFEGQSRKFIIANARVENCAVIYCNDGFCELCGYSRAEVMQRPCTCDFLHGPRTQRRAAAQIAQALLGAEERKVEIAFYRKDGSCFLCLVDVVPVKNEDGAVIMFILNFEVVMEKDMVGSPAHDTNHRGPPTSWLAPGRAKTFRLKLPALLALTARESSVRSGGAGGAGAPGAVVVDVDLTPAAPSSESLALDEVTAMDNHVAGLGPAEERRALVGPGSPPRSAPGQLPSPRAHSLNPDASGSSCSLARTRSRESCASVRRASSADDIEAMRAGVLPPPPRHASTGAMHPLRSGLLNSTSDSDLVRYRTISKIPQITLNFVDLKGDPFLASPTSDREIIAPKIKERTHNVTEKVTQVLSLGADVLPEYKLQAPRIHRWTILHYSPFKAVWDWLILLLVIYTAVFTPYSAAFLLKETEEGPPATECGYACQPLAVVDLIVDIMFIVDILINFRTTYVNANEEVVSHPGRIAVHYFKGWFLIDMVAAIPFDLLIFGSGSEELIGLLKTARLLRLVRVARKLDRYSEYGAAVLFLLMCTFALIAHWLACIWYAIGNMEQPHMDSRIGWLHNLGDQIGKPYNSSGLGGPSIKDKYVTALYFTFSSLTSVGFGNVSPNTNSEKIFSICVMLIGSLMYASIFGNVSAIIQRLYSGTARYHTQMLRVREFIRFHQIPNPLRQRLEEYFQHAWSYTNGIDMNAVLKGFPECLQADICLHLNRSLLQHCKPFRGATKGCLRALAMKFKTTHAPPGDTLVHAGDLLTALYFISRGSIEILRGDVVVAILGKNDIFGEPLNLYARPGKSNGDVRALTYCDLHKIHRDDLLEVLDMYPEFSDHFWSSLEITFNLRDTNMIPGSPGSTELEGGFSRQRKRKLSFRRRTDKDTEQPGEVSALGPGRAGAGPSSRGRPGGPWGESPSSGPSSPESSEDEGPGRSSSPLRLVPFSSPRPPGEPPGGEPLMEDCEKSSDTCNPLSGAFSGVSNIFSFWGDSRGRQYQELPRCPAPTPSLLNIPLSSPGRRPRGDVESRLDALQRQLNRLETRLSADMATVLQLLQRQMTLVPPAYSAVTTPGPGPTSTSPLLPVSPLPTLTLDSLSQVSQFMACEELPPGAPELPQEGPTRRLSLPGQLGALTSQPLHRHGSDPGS
# [6] = Intrinsic clearance in human liver microsomes measured per mg of protein; assay type: ADME, Microsome; conditions: read-out: CLH
# [7] = Intrinsic clearance in mouse liver microsomes measured per mg of protein; assay type: ADME, Microsome; conditions: read-out: CLH
# [8] = target: T3, NAD-dependent protein deacetylase sirtuin-3, mitochondrial; experiment: Inhibition of His-tagged SIRT3 (unknown origin) using KI179 as substrate after 1 hr by spectrophotometric analysis
# [9] = target: T2, NAD-dependent protein deacetylase sirtuin-1; experiment: Inhibition of GST-tagged SIRT1 (unknown origin) using KI177 as substrate after 1 hr by spectrophotometric analysis
Compound,IC50 [1] [nM],IC50 [2] [nM],solubility kinetic [3] [µM],also measured
NC(=O)c1cc2ncnc(N3CCC(CCNC(=O)c4ccc(C(=O)O)s4)CC3)c2s1,4.4,,,
CCNC(=O)c1cccc(C(=O)NCCC2CCN(c3ncnc4cc(C(N)=O)sc34)CC2)c1,1.3,5.3,19,IC50 [4]: 4.9 nM
CC(C)(C)C(=O)NCCC1CCN(c2ncnc3cc(C(=O)O)sc23)CC1,> 50000,> 50000,,
CC(C)(C)OC(=O)c1ccc(C(=O)NCCC2CCN(c3ncnc4cc(C(N)=O)sc34)CC2)s1,1.8,6.7,,
CCNC(=O)c1ccc(C(=O)NCCN2CCN(c3ncnc4cc(C(N)=O)sc34)CC2)s1,4.8,,65,
CCNC(=O)c1cccc(C(=O)NCCN2CCN(c3ncnc4cc(C(N)=O)sc34)CC2)c1,,,220,
CCCCC[C@H]1CC(=O)c2cc(Cl)cc(Br)c2O1,,,,IC50 [8]: > 200000 nM; IC50 [9]: > 200000 nM
CCNC(=O)c1ccc(C(=O)NCCC2CCN(c3ncnc4cc(C(N)=O)sc34)CC2)s1,,,9,

# Further lines, with some results ahead:
IC50 [1] [nM],IC50 [2] [nM],solubility kinetic [3] [µM],Compound,also measured
6.5,5.8,,NC(=O)c1cc2ncnc(N3CCC(CCNC(=O)c4cccs4)CC3)c2s1,
,,297,CC(C)(C)C(=O)NCCC1CCN(c2ncnc3cc(C(N)=O)sc23)CC1,IC50 (Cytochrome P450 3A4): > 50000 nM; IC50 (Cytochrome P450 2D6): > 50000 nM; IC50 (Cytochrome P450 2C19): > 50000 nM; IC50 (Cytochrome P450 1A2): > 50000 nM; IC50 [5]: > 50000 nM; microsomal CLint [6]: 15.8 µL/min/mg; microsomal CLint [7]: 12.7 µL/min/mg
1.1,,,CS(=O)(=O)NCCC1CCN(c2ncnc3cc(C(N)=O)sc23)CC1,
5.4,,,CC(C)(C)OC(=O)NCCC1CCN(c2ncnc3cc(C(N)=O)sc23)CC1,
